Our source for the IC50 values is ChEMBL document CHEMBL3758090, “Investigation of α-conotoxin unbinding using umbrella sampling” (Bioorg Med Chem Lett, 2016).

Positions of bridges follow the written chain, without caps; N, C: chain ends. Residues, ends and D or L forms follow the SMILES beside them.

The target in this assay is T1, Soluble acetylcholine receptor (Aplysia californica, UniProt Q8WSF8).
T1 sequence (Q8WSF8 whole entry): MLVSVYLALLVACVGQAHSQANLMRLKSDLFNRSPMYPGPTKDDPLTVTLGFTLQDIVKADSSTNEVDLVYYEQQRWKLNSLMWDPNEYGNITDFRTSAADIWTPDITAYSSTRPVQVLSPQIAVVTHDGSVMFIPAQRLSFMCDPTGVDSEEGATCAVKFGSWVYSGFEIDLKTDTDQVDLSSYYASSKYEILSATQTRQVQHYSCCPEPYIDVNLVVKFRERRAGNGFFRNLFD
Nature of the assay: Displacement [125I]alpha-bungarotoxin from untagged Aplysia californica AChBP expressed in Sf9 cells by competitive binding assay.

The IC50 is the concentration that gives 50% inhibition.

On to `CC(C)C[C@@H]1NC(=O)[C@H](C)NC(=O)[C@@H]2CSSC[C@H](NC(=O)CN)C(=O)N[C@@H](CSSC[C@@H](C(=O)O)NC(=O)[C@H](Cc3ccc(O)cc3)NC(=O)[C@H](CCCCN)NC(=O)[C@@H]3CCCN3C(=O)[C@H](CC(N)=O)NC(=O)[C@H](CC(N)=O)NC1=O)C(=O)N[C@@H](CO)C(=O)N[C@@H](CC(C)C)C(=O)N1CCC[C@H]1C(=O)N1CCC[C@H]1C(=O)N2` (H-GCCSLPPCALNNPKYC-OH; disulfide 2-8, 3-16), for which the IC50 came out at 28 nM.
